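Grown in 96-well plates, cells were treated for 48 hours with each compound at five concentrations. Insufficient inhibition: endpoint recorded as highest concentration tested. GI50 marks 50% less growth. At the TGI there is no net growth.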
Columns and labels:
Assay in all cases: growth of human tumour cells (NCI), 48 h
SW-620 colon = test system: SW-620 colon
MALME-3M melanoma = test system: MALME-3M melanoma
CAKI-1 renal = test system: CAKI-1 renal
LOX IMVI melanoma = test system: LOX IMVI melanoma
SK-MEL-28 melanoma = test system: SK-MEL-28 melanoma
U251 CNS = test system: U251 CNS
UO-31 renal = test system: UO-31 renal
KM12 colon = test system: KM12 colon
DU-145 prostate = test system: DU-145 prostate
SNB-19 CNS = test system: SNB-19 CNS
NCI-H23 lung = test system: NCI-H23 lung
MOLT-4 leukemia = test system: MOLT-4 leukemia
NCI-H460 lung = test system: NCI-H460 lung
SF-539 CNS = test system: SF-539 CNS
OVCAR-3 ovarian = test system: OVCAR-3 ovarian
OVCAR-5 ovarian = test system: OVCAR-5 ovarian
M14 melanoma = test system: M14 melanoma
786-0 renal = test system: 786-0 renal
MDA-MB-231 breast = test system: MDA-MB-231 breast
HCT-15 colon = test system: HCT-15 colon
RXF 393 renal = test system: RXF 393 renal
SK-MEL-5 melanoma = test system: SK-MEL-5 melanoma
HOP-62 NSCLC = test system: HOP-62 NSCLC
RPMI-8226 leukemia = test system: RPMI-8226 leukemia
K-562 leukemia = test system: K-562 leukemia
UACC-257 melanoma = test system: UACC-257 melanoma
OVCAR-8 ovarian = test system: OVCAR-8 ovarian
SK-OV-3 ovarian = test system: SK-OV-3 ovarian
HS 578T breast = test system: HS 578T breast
HL-60(TB) leukemia = test system: HL-60(TB) leukemia
SN12C renal = test system: SN12C renal
TK-10 renal = test system: TK-10 renal
HCT-116 colon = test system: HCT-116 colon
BT-549 breast = test system: BT-549 breast
NCI-H522 lung = test system: NCI-H522 lung
A549 NSCLC = test system: A549 NSCLC
HOP-92 NSCLC = test system: HOP-92 NSCLC
OVCAR-4 ovarian = test system: OVCAR-4 ovarian
ACHN renal = test system: ACHN renal
EKVX NSCLC = test system: EKVX NSCLC
NCI/ADR-RES ovarian = test system: NCI/ADR-RES ovarian
CCRF-CEM leukemia = test system: CCRF-CEM leukemia
IGROV1 ovarian = test system: IGROV1 ovarian
SF-268 CNS = test system: SF-268 CNS
SR leukemia = test system: SR leukemia
HT29 colon = test system: HT29 colon
COLO 205 colon = test system: COLO 205 colon
NCI-H226 lung = test system: NCI-H226 lung
SK-MEL-2 melanoma = test system: SK-MEL-2 melanoma
MDA-MB-435 = test system: MDA-MB-435
SF-295 CNS = test system: SF-295 CNS
A498 renal = test system: A498 renal
PC-3 prostate = test system: PC-3 prostate
UACC-62 melanoma = test system: UACC-62 melanoma
T-47D breast = test system: T-47D breast
HCC-2998 colon = test system: HCC-2998 colon
SNB-75 CNS = test system: SNB-75 CNS

O=C(NC1CCN(Cc2ccccc2)CC1)c1ccccc1I gave a TGI (SW-620 colon) of 38.9 µM, a TGI (MALME-3M melanoma) of 31.6 µM and a TGI (CAKI-1 renal) greater than 100000 nM. It also gave a TGI (LOX IMVI melanoma) of 32.6 µM, a TGI (SK-MEL-28 melanoma) of 36.5 µM and a TGI (U251 CNS) of 63.3 µM. The TGI (UO-31 renal) was 30.1 µM, the TGI (KM12 colon) was 34.6 µM and the TGI (DU-145 prostate) was greater than 100 µM. It also gave a TGI (SNB-19 CNS) greater than 100 µM, a TGI (NCI-H23 lung) of 72.1 µM and a TGI (MOLT-4 leukemia) of 55.1 µM. The TGI (NCI-H460 lung) was 67.7 µM, the TGI (SF-539 CNS) was 63.1 µM and the TGI (OVCAR-3 ovarian) was greater than 100000 nM. The TGI (OVCAR-5 ovarian) was 58 µM, the TGI (M14 melanoma) was 33.4 µM and the TGI (786-0 renal) was 63.4 µM. The TGI (MDA-MB-231 breast) was 41.1 µM, the TGI (HCT-15 colon) was 36.7 µM and the TGI (RXF 393 renal) was greater than 100000 nM. For the same compound, the TGI (SK-MEL-5 melanoma) was 31 µM, the TGI (HOP-62 NSCLC) was 37.9 µM and the TGI (RPMI-8226 leukemia) was greater than 100 µM. It also gave a TGI (K-562 leukemia) greater than 100 µM, a TGI (UACC-257 melanoma) of 38 µM and a TGI (OVCAR-8 ovarian) greater than 100000 nM. It also gave a TGI (SK-OV-3 ovarian) of 43.6 µM, a TGI (HS 578T breast) of 50.2 µM and a TGI (HL-60(TB) leukemia) greater than 100000 nM. It also gave a TGI (SN12C renal) greater than 100000 nM, a TGI (TK-10 renal) of 63.6 µM and a TGI (HCT-116 colon) of 31.1 µM. For the same compound, the TGI (BT-549 breast) was greater than 100000 nM, the TGI (NCI-H522 lung) was 27.6 µM and the TGI (A549 NSCLC) was greater than 100000 nM. It also gave a TGI (HOP-92 NSCLC) of 92.4 µM, a TGI (OVCAR-4 ovarian) greater than 100000 nM and a TGI (ACHN renal) greater than 100 µM. The TGI (EKVX NSCLC) was greater than 100 µM, the TGI (NCI/ADR-RES ovarian) was 92.3 µM and the TGI (CCRF-CEM leukemia) was 86.2 µM. The TGI (IGROV1 ovarian) was greater than 100000 nM, the TGI (SF-268 CNS) was greater than 100000 nM and the TGI (SR leukemia) was greater than 100 µM. For the same compound, the TGI (HT29 colon) was 34.8 µM, the TGI (COLO 205 colon) was 34.8 µM and the TGI (NCI-H226 lung) was 72.8 µM. For the same compound, the TGI (SK-MEL-2 melanoma) was 48.7 µM, the TGI (MDA-MB-435) was 32.4 µM and the TGI (SF-295 CNS) was 36.9 µM. It also gave a TGI (A498 renal) greater than 100000 nM, a TGI (PC-3 prostate) of 98.8 µM and a TGI (UACC-62 melanoma) of 34.9 µM. For the same compound, the TGI (T-47D breast) was 66.1 µM.
For C#Cc1ccc(-n2c(/C=C/c3ccc4ccccc4n3)nc3ncccc3c2=O)cc1, the GI50 (SW-620 colon) was 387 nM, the TGI (SW-620 colon) was 1.52 µM and the GI50 (MALME-3M melanoma) was 798 nM. For the same compound, the TGI (MALME-3M melanoma) was 2.35 µM, the GI50 (CAKI-1 renal) was 501 nM and the TGI (CAKI-1 renal) was 2690 nM. It also gave a GI50 (LOX IMVI melanoma) of 169 nM, a TGI (LOX IMVI melanoma) of 0.657 µM and a GI50 (SK-MEL-28 melanoma) of 904 nM. The TGI (SK-MEL-28 melanoma) was 2.13 µM, the GI50 (U251 CNS) was 419 nM and the TGI (U251 CNS) was 1.59 µM. It also gave a GI50 (UO-31 renal) of 403 nM, a TGI (UO-31 renal) of 1.8 µM and a GI50 (KM12 colon) of 359 nM. The TGI (KM12 colon) was 1.26 µM, the GI50 (NCI-H23 lung) was 774 nM and the TGI (NCI-H23 lung) was 2.32 µM. For the same compound, the GI50 (MOLT-4 leukemia) was 456 nM, the TGI (MOLT-4 leukemia) was greater than 100 µM and the GI50 (NCI-H460 lung) was 776 nM. For the same compound, the TGI (NCI-H460 lung) was 2.91 µM, the GI50 (SF-539 CNS) was 593 nM and the TGI (SF-539 CNS) was 1.93 µM. For the same compound, the GI50 (OVCAR-3 ovarian) was 317 nM, the TGI (OVCAR-3 ovarian) was 905 nM and the GI50 (HCC-2998 colon) was 640 nM. The TGI (HCC-2998 colon) was 1790 nM, the GI50 (786-0 renal) was 575 nM and the TGI (786-0 renal) was 2.24 µM. The GI50 (MDA-MB-231 breast) was 544 nM, the TGI (MDA-MB-231 breast) was 1.65 µM and the GI50 (RXF 393 renal) was 269 nM. It also gave a TGI (RXF 393 renal) of 792 nM, a GI50 (SK-MEL-5 melanoma) of 246 nM and a TGI (SK-MEL-5 melanoma) of 0.683 µM. It also gave a GI50 (HOP-62 NSCLC) of 850 nM, a TGI (HOP-62 NSCLC) of 2.36 µM and a GI50 (K-562 leukemia) of 330 nM. It also gave a TGI (K-562 leukemia) greater than 100 µM, a GI50 (UACC-257 melanoma) of 436 nM and a TGI (UACC-257 melanoma) of 1.92 µM. The GI50 (OVCAR-8 ovarian) was 763 nM, the TGI (OVCAR-8 ovarian) was 2950 nM and the GI50 (SK-OV-3 ovarian) was 351 nM. For the same compound, the TGI (SK-OV-3 ovarian) was 1.08 µM, the GI50 (HL-60(TB) leukemia) was 297 nM and the TGI (HL-60(TB) leukemia) was 851 nM. For the same compound, the GI50 (SN12C renal) was 469 nM, the TGI (SN12C renal) was 2030 nM and the GI50 (HCT-116 colon) was 346 nM. It also gave a TGI (HCT-116 colon) of 1.2 µM, a GI50 (BT-549 breast) of 514 nM and a TGI (BT-549 breast) of 2190 nM. For the same compound, the GI50 (NCI-H522 lung) was 281 nM, the TGI (NCI-H522 lung) was 0.779 µM and the GI50 (SNB-75 CNS) was 389 nM. For the same compound, the TGI (SNB-75 CNS) was 1450 nM, the GI50 (A549 NSCLC) was 353 nM and the TGI (A549 NSCLC) was 1830 nM. For the same compound, the GI50 (HOP-92 NSCLC) was 370 nM, the TGI (HOP-92 NSCLC) was 1.8 µM and the GI50 (OVCAR-4 ovarian) was 315 nM. The TGI (OVCAR-4 ovarian) was 1810 nM, the GI50 (NCI/ADR-RES ovarian) was 338 nM and the TGI (NCI/ADR-RES ovarian) was 1.23 µM. It also gave a GI50 (IGROV1 ovarian) of 428 nM, a TGI (IGROV1 ovarian) of 1580 nM and a GI50 (SF-268 CNS) of 488 nM. It also gave a TGI (SF-268 CNS) of 2330 nM, a GI50 (HT29 colon) of 375 nM and a TGI (HT29 colon) of 1.13 µM. The GI50 (COLO 205 colon) was 300 nM, the TGI (COLO 205 colon) was 0.734 µM and the GI50 (NCI-H226 lung) was 408 nM. The TGI (NCI-H226 lung) was 1.37 µM, the GI50 (SK-MEL-2 melanoma) was 306 nM and the TGI (SK-MEL-2 melanoma) was 0.785 µM. The GI50 (SF-295 CNS) was 386 nM, the TGI (SF-295 CNS) was 1.52 µM and the GI50 (A498 renal) was 138 nM. The TGI (A498 renal) was 615 nM, the GI50 (PC-3 prostate) was 341 nM and the TGI (PC-3 prostate) was 1.75 µM. It also gave a GI50 (UACC-62 melanoma) of 394 nM, a TGI (UACC-62 melanoma) of 1.75 µM and a GI50 (T-47D breast) of 366 nM. The TGI (T-47D breast) was 1.28 µM.

Source: PubChem BioAssay (NCI)
